From patent US20130109712A1, “Statins for the Prevention or Treatment of Drug Addictions” (Universite de Poitiers, priority 2010, published 2013)

Key:
cocaine-seeking behavior = experiment: Cocaine-seeking test (extinction session) after cocaine self-administration and 20-day abstinence; type: in vivo, Sprague-Dawley rats; conditions: rats, simvastatin 1 mg/kg i.p. daily for 20 days of abstinence, 3 h extinction test
[1] = system: nicotine-seeking behavior; experiment: Nicotine-seeking test (extinction session) after nicotine self-administration and 20-day abstinence; type: in vivo, Sprague-Dawley rats; conditions: rats, simvastatin 1 mg/kg i.p. daily for 20 days of abstinence; 1 h extinction test; control approx. 100 active nose pokes
Experimental: Thus, the logic of the experiment is the following: • 1) the rats acquire self-administration under similar conditions; • 2) during withdrawal from self-administration, they are separated and receive, once a day for 20 days, an injection of simvastatin (1 mg/kg i.p) or a control solution; • 3) they are tested in a drug-seeking protocol in which their responses are not reinforced by the drug. Adult male (11-12 weeks old) Sprague-Dawley rats (Janvier, France), experimentally naive at the beginning of the study, are placed in the animal house with controlled temperature and degree of humidity, and are kept in a 12-hour light/dark cycle (light active at 7 am). As soon as they arrive, the rats are placed in cages in groups of 3 for one week, before beginning the surgery, consisting of the implantation of a catheter in the jugular vein. After the surgery and during the rest of the experiment, the rats are placed in cages individually. All the experiments are carried out during the “day” phase, in accordance with EC regulations for the use of animals in research (86/609/EEC). For the nicotine, 24 self-administration sessions are carried out using a fixed ratio 1 or 3 (FR1 or FR3) schedule of reinforcement, i.e., during the sessions, respectively one or three nose pokes in the active hole deliver an i.v. injection of nicotine. […]

CCC(C)(C)C(=O)O[C@H]1C[C@@H](C)C=C2C=C[C@H](C)[C@H](CC[C@@H]3C[C@@H](O)CC(=O)O3)[C@H]21 [simvastatin]
reduction in cocaine-seeking behavior vs control (cocaine-seeking behavior): 45% | number of active nose pokes (drug-seeking behavior) (cocaine-seeking behavior; control approx. 350): approximately 190 active nose pokes | reduction in nicotine-seeking behavior vs control [1]: approximately 50%
